Publication PMC13223490, “New Indazole Derivatives as Potential Scaffolds for the Development of Anticancer, Antiviral, and Anti-tuberculosis Chemotherapeutic Compounds” (Current Medicinal Chemistry, 2025)
Values after ≈ are worked out from the molar mass of the structure shown. Values joined by “and” are separate entries in the source; they are usually repeats but may differ in a detail not shown here. Equal entries are not always repeated. “Also recorded” adds a separate entry of the source. Structures can show the parent of a compound that is named as a salt. Where two headings read alike, the source gives them in different places.

Legend:
[1] = system: influenza virus A/California/7/2009 (H1N1)pdm09; experiment: microbe, parasite or virus in culture; assay type: cell-based, human influenza virus A; details: for SI (selectivity index): ratio of CD50 (CC50) to IC50, MDCK; for maximum reduction of the infectious titer: MDCK cell culture
[2] = system: MDCK cells; experiment: Cytotoxic effect in MDCK cell culture (MTS); assay type: cell-based; details: MDCK; concentration reducing the cell number by 50%
Method: (§1) Multiple dilutions of solutions of all compounds were prepared in 24-well plates by titration into 8 wells, starting from a dilution of 1:10 to 1:1280. The resulting serial dilutions were transferred to the wells of the test plates with cells. Each point was tested in 4 parallel wells. The working medium was added to the wells of the cell control. […] Then, the culture medium was removed from the plates, and 100 μL of the medium and 20 μL of the MTS solution were added to the cell culture monolayer in each well. After incubation for 3 hours at 37°C, the results were recorded on a BIO-RAD automatic reader at a wavelength of 490 nm. Reference filter - 630 nm.
(§2) To obtain statistically reliable results, the experiments were performed 2-3 times. The values of CC50 and IC50 were calculated using generally accepted methods for biological research, as implemented in the Microsoft Excel 5.0 and GraphPad Prism 6.01 software packages. The working model for CC50 analysis was a 4-parameter logistic curve equation (menu items “Nonlinear regression” - “Sigmoidal dose-response (variable slope)”). For IC50 analysis, a 4-parameter logistic curve equation was adopted (menu items “Nonlinear regression” - “log (inhibitor) vs. response (variable slope)”). Based on the obtained data, the selectivity index (SI) was calculated using the equation: SI = CC50/ IC50.

[3] = system: HL60 leukemia cells; experiment: Cytotoxicity on tumor cell cultures (resazurin, 48 h); assay type: cell-based; details: HL60, 48 h
Method: (§3) The total well volume was 150 μl.

[4] = system: SH-SY5Y neuroblastoma cells; experiment: as above; assay type: cell-based
Method: as §3

[5] = system: K562 leukemia cells; experiment: as above; assay type: cell-based; details: K562, 48 h
Method: as §3

[6] = system: M. tuberculosis H37Rv; experiment: Bacteriostatic activity, proportion method, BACTEC MGIT 960, Middlebrook 7H9; assay type: cell-based, Mycobacterium tuberculosis; details: for MIC50: 50% inhibition of mycobacterial growth; for effect on growth of M. tuberculosis H37Rv culture, in words: up to the maximum tested concentration
[7] = system: SARS-CoV-2; experiment: microbe, parasite or virus in culture; assay type: cell-based; details: for IC50: Vero E6
[8] = system: SH-SY5Y, K-562, HL-60, GBM5522 cells; experiment: Cytotoxicity screening, summary over the cancer cell panel; assay type: cell-based
Method: as §3
Cytotoxicity screening of the synthesized indazole derivatives was performed on the cell line of neuroblastoma SH-SY5Y, lymphoblastic cells K-562, promyeloblastic cells HL-60, low-passage variant of highly differentiated multiform glioblastoma GBM5522 (Table 2).

[9] = system: GBM5522 low-passage primary glioblastoma multiforme cells; experiment: Cytotoxicity on tumor cell cultures (resazurin, 48 h)
Method: The low-passage primary glioblastoma multiforme cell culture GBM5522 was previously described [37]. Cells were cultured in DMEM (Servicebio) containing 10% fetal bovine serum (FBS) at 37°C in an atmosphere of 5% CO2. The cells were plated in 96-well plates at a density of 1x10^4 cells/well. The test substances were then added in concentrations ranging from 0.8 to 100 μM. DMSO at a concentration of 1% was used as a control, corresponding to the percentage of DMSO when the highest concentration of the drug was added. The total well volume was 150 μl. The cells were incubated for 48 hours at 37°C in a 5% CO2 atmosphere. Resazurin was added in a concentration of 10 μl of a 0.5 mg/mL solution in phosphate-buffered saline. The incubation was carried out under the same conditions for 4 hours, and then the fluorescence level was measured at an excitation wavelength of 560 nm and an emission wavelength of 590 nm using a CLARIOstar multimodal microplate reader (BMG Labtech, Germany). The data obtained for each concentration were normalized to the control, and the IC50 was calculated using the nonlinear regression method. The minimum number of repetitions for each concentration was three. The GraphPad Prism software v.9.5.1 (GraphPad Software, San Diego, USA) was used to calculate the IC50 and plot the percentage of living cells versus the concentration of the drug.

[10] = system: mycobacteria; set-up: method as in PMID 27704782; details: growth of mycobacteria; cited from earlier work
[11] = system: M. tuberculosis; set-up: method as in PMID 37111241; details: cited from earlier work
[12] = Cytotoxic effect in MDCK cell culture (MTS); assay type: cell-based; details: dog
Method: as §1, §2

[13] = system: white outbred mice; experiment: in vivo; assay type: in vivo
Text: (§4) The toxicity of the compound was studied according to published procedure in compliance with the guidelines.
(§5) In this regard, one representative of the group, lead compound 8, was studied for acute toxicity in […] mice. White outbred mice of both sexes, weighing 25-30 g and aged 12-13 weeks, were used as biomodels. The animals were obtained from the nursery of the Federal State Unitary Enterprise «Research Institute for Hygiene, Toxicology and Occupational Pathology» of the Federal Medical and Biological Agency of Russia. The total number of animals was 20 heads. The experimental and control groups consisted of 4 animals with an equal number of males and females.
(§6) The toxic effect of the specified substance was studied using the described procedure. The substance was administered intragastrically using an atraumatic metal probe at a rate of 0.05 mL per 10 g of body weight in a dose range from 20 mg/kg to 80 mg/kg. Control animals received the solvent (99% DMSO) in the same volume in a similar way.
(§7) After the substance was administered, the animals were continuously observed for 4 hours, then periodically for 14 days, recording clinical manifestations of intoxication and the fact of death, after which lethal doses were calculated.
(§8) Dead animals were autopsied as soon as possible after death, macroscopic manifestations of the effect of the test compound were noted, and internal organs were collected for subsequent histological examination as described earlier.
(§9) Lethal doses were calculated using the probit analysis method, as described by D.J. Finney, in Microsoft Excel 2013 on the 14th day of the experiment.

[14] = in vivo; assay type: in vivo, mice; details: both sexes, white outbred, mouse, in vivo, po; mice, single intragastric administration, day 14
Text: as §4, §5, §6, §7, §8, §9

[15] = system: continuous leukemia cell lines; set-up: method as in PMID 28587395, PMID 11531262; details: read-out: half-maximal effective concentrations; cited from earlier work
[16] = system: mouse; details: mouse model studies; cited from earlier work
[17] = system: M. tuberculosis; details: cited from earlier work
[18] = 75% inhibition of mycobacterial growth
[19] = Mycobacterium tuberculosis, H37RV, 75% inhibition of mycobacterial growth
[20] = Mycobacterium tuberculosis, H37RV, read-out: MIC 50
[21] = Severe acute respiratory syndrome coronavirus 2, Vero C1008
[22] = mice, single intragastric administration, day 14

Molecule | Δlgmax [1] | Δlgmax [7] | IC50 ([1]; H1N1, MDCK) [µM] | SI (selectivity index) [1] | CC50 at 66 h [12] [µM] | IC50 ([3]; Homo sapiens, HL-60) [µM] | IC50 ([4]; Homo sapiens) [µM] | IC50 ([5]; Homo sapiens) [µM] | MIC50 [6, 20] | IC50 [7, 21] [µM] | IC50 ([9]; 48 h) [µM] | other results
6-(cyclopenten-1-en-1-yl)-1H-indazole [Compound 12] | 0.25 | 0.5 | – | – | – | – | – | – | – | – | – | IC50 ([1]; read-out: IC50): > 2 µM; CC50 [2]: 4 µM; IC50 [3]: > 100 µM; IC50 [4]: > 100 µM; IC50 [5]: 22.3 ± 4.3 µM; MIC50 [6]: 40 µg/mL; MIC50 ([6]; read-out: MIC 50): 217 µM; MIC [6, 18]: 217 µM; MIC 75 [6, 18]: 40 µg/mL; effect on growth of M. tuberculosis H37Rv culture, in words [6]: best antibacterial activity; IC50 [7]: > 3 µM; cytotoxicity in words ([8]; cancer cell lines panel): inactive; IC50 ([9]; GBM5522, 48 h): > 100 µM
Cc1n[nH]c(C)c1S(=O)(=O)Nc1ccc2cn[nH]c2c1 [Compound 4, N-(1H-indazol-6-yl)-3,5-dimethyl-1H-pyrazole-4-sulfonamide] | – | – | – | – | – | – | – | – | – | – | – | MIC [10]: 2 µM (≈ 0.583 µg/mL)
O=C(N/N=C/c1ccc2c[nH]nc2c1)c1ccncc1 [Compound 5] | – | – | – | – | – | – | – | – | – | – | – | MIC [11]: 0.11 µM (≈ 0.0292 µg/mL)
c1cc2[nH]ncc2cc1-c1cn[nH]c1 [Compound 7, 5-(1H-pyrazol-4-yl)-1H-indazole] | 0 | 0.25 | > 20 | <5 | 100 | 23.7 ± 5 | 15.5 ± 5.3 | 24.4 ± 3.1 | 40 µg/mL and 217 µM | > 50 | 36.8 ± 2 | MIC [6, 19]: 60 µg/mL and 326 µM
c1cc2cn[nH]c2cc1-c1cn[nH]c1 [Compound 8, 6-(1H-pyrazol-4-yl)-1H-indazole] | 2.0 | 0.75 | 6 | 55 | 330 | 9.9 ± 0.8 | 4.2 ± 0.9 | 6.7 ± 0.8 | 40 µg/mL and 217 µM | > 6 | 13.8 ± 1.1 | maximum reduction of the infectious titer [1]: 2.0 logTCID50; MIC [6, 19]: 60 µg/mL and 326 µM; cytotoxicity in words [8]: significant cytotoxicity; IC50 ([8]; SH-SY5Y, K-562, HL-60, GBM5522, read-out: IC50 range over cancer cell lines): 4 to 14 µM; Number of Animals in the Group/Number of Dead ([13]; 20 mg/kg intragastric): 4/0; Number of Animals in the Group/Number of Dead ([13]; 40 mg/kg intragastric): 4/2; Number of Animals in the Group/Number of Dead ([13]; 50 mg/kg intragastric): 4/3; necropsy findings ([13]; 80 mg/kg and 50 mg/kg, dead animals): uncoagulated blood was found in the heart, pulmonary hyperemia was present, and blood was observed in the chest; Number of Animals in the Group/Number of Dead ([13]; 80 mg/kg intragastric): 4/4; pathomorphological examination ([13]; 80 mg/kg, male mouse): focal hemorrhages in the gastric mucosa and pronounced swelling and edema of the submucosal layer; clinical picture of intoxication ([13]; lethal doses, first day after administration): convulsions, dysfunction of the hind limbs, increasing hypodynamia; LD10 [13, 22]: 26,2 mg/kg; LD16 [13, 22]: 28,8 mg/kg; LD84 [13, 22]: 55,6 mg/kg; LD50 [14]: 40 mg/kg
c1ncc(-c2ccc3[nH]ncc3c2)cn1 [Compound 9, 5-(pyrimidin-5-yl)-1H-indazole] | 1.0 | 0 | > 100 | <10 | 1050 | > 100 | > 100 | > 100 | 40 µg/mL and 204 µM | > 50 | > 100 | MIC [6, 19]: 40 µg/mL and 204 µM; effect on growth of M. tuberculosis H37Rv culture, in words [6]: best antibacterial activity; cytotoxicity in words [8]: inactive
c1cncc(-c2ccc3[nH]ncc3c2)c1 [Compound 10, 5-(pyridin-3-yl)-1H-indazole] | 1.5 | 0.75 | 25 | 24,4 | 610 | > 100 | 14.3 ± 5 | 5.5 ± 1.5 | – | > 25 | 95.4 ± 5.2 | maximum reduction of the infectious titer [1]: 1.5 logTCID50; effect on growth of M. tuberculosis H37Rv culture, in words [6]: did not affect the growth; also recorded: completely devoid of the ability to suppress the growth of mycobacteria
c1ncc(-c2ccc3cn[nH]c3c2)cn1 [Compound 11, 6-(pyrimidin-5-yl)-1H-indazole] | 0.5 | 0 | > 200 | <5 | 1120 | > 100 | > 100 | > 100 | 60 µg/mL and 306 µM | > 200 | > 100 | cytotoxicity in words [8]: inactive
CCOC(=O)C1=C[C@@H](OC(CC)CC)[C@H](NC(C)=O)[C@@H](N)C1 [Oseltamivir, (3R,4R,5S)-4-acetamido-5-amino-3-(1-ethylpropo-xy)-1-cyclohexene-1-carboxylic acid ethyl ester phosphate salt, reference compound] | 6.0 | – | 0.61 | – | 820 | – | – | – | – | – | – | –
COc1cc([C@@H]2c3cc4c(cc3[C@@H](O[C@@H]3O[C@@H]5CO[C@@H](C)O[C@H]5[C@H](O)[C@H]3O)[C@H]3COC(=O)[C@H]23)OCO4)cc(OC)c1O [etoposide] | – | – | – | – | – | – | – | – | – | – | – | EC50 [15]: 10 to 100 µM; nonlethal doses [16]: ~ 50 mg/kg
NNC(=O)c1ccncc1 [isoniazid] | – | – | – | – | – | – | – | – | – | – | – | critical concentration ([17]; control drugs): 1 μg/mL and 0.73 µM; MIC [11]: 0.36 µM (≈ 0.0494 µg/mL)
NC(=O)c1cnccn1 [pyrazinamide] | – | – | – | – | – | – | – | – | – | – | – | critical concentration [17]: 100 μg/mL and 812 µM
CO[C@H]1/C=C/O[C@@]2(C)Oc3c(C)c(O)c4c(O)c(c(/C=N/N5CCN(C)CC5)c(O)c4c3C2=O)NC(=O)/C(C)=C\C=C\[C@H](C)[C@H](O)[C@@H](C)[C@@H](O)[C@@H](C)[C@H](OC(C)=O)[C@@H]1C [rifampicin] | – | – | – | – | – | – | – | – | – | – | – | critical concentration ([17]; control drugs): 0.5 μg/mL and 0.61 µM
